Test results from patent US20120034613A1, “Apparatus and Method for Testing Relationships Between Gene Expression and Physical Appearance of Skin” (NSE Products, Inc., priority 2010, published 2012).

Test system: EpidermFT™ Skin Model (EFT-400) full thickness skin cultures
Assay: Affymetrix GeneChip HG U133 Plus 2.0 microarray global gene expression, agent-exposed vs untreated skin cultures
Assay type: cell-based, human
Details: Salicin 0.5% vs Untreated Control

Q: Which results are given for `OCc1ccccc1O[C@@H]1O[C@H](CO)[C@@H](O)[C@H](O)[C@H]1O` [Salicin, 2-(Hydroxymethyl)phenyl β-D-glucospyranoside]?
A: Fold change TMEM38B (222736_s_at) (24 hr treatment): 2.316; Fold change TMEM39A (218615_s_at) (24 hr treatment): 2.497; Fold change TMEM39A (222690_s_at) (24 hr treatment): 2.47; Fold change TMTC1 (226322_at) (24 hr treatment): 2.647; Fold change TMTC1 (226931_at) (24 hr treatment): 2.583; Fold change TNC (216005_at) (24 hr treatment): 2.719; Fold change TNFAIP6 (206026_s_at) (24 hr treatment): 2.52; Fold change TNIP3 (220655_at) (24 hr treatment): 2.654; Fold change TRPA1 (217590_s_at) (24 hr treatment): 2.602; Fold change TRPC4 (224220_x_at) (24 hr treatment): 2.708; Fold change UBE2B (239163_at) (24 hr treatment): 2.636; Fold change UGCGL2 (218801_at) (24 hr treatment): 2.4; Fold change UST (205139_s_at) (24 hr treatment): 2.454; Fold change WIPI1 (203827_at) (24 hr treatment): 2.744; Fold change XPO1 (235927_at) (24 hr treatment): 2.529; Fold change ZFAND5 (217649_at) (24 hr treatment): 2.438; Fold change ZFP36L1 (211965_at) (24 hr treatment): 2.705; Fold change ZNF281 (228785_at) (24 hr treatment): 2.627; Fold change ZNF331 (219228_at) (24 hr treatment): 2.442; Fold change ZNF697 (227080_at) (24 hr treatment): 2.599; Fold change ABCD3 (202850_at) (24 hr, direction down): 2.077; Fold change ABCG4 (207593_at) (24 hr, direction down): 2.004; Fold change ACACA (212186_at) (24 hr, direction down): 2.091; Fold change ACAD9 (224160_s_at) (24 hr, direction down): 2.034; Fold change ACOX3 (204241_at) (24 hr, direction down): 2.001; Fold change ADAMTSL4 (226071_at) (24 hr, direction down): 2.137; Fold change ADARB1 (203865_s_at) (24 hr, direction down): 2.089; Fold change AHNAK (211986_at) (24 hr, direction down): 2.023; Fold change AIF1L (223075_s_at) (24 hr, direction down): 2.169; Fold change AK1 (202587_s_at) (24 hr, direction down): 2.078; Fold change AK3L1 /// AK3L2 (204347_at) (24 hr, direction down): 2.026; Fold change ALDH5A1 (203609_s_at) (24 hr, direction down): 2.111; Fold change ALOX12 (207206_s_at) (24 hr, direction down): 2.124; Fold change AMACR (209426_s_at) (24 hr, direction down): 2.021; Fold change AMOTL2 (203002_at) (24 hr, direction down): 2.089; Fold change ANK3 (207950_s_at) (24 hr, direction down): 2.049; Fold change APPL2 (218218_at) (24 hr, direction down): 2.013; Fold change AQP3 (203747_at) (24 hr, direction down): 2.032; Fold change ARHGAP27 (225618_at) (24 hr, direction down): 2.077; Fold change ARL17 /// ARL17P1 (1555964_at) (24 hr, direction down): 2.016; Fold change ARPC1A (200950_at) (24 hr, direction down): 2.042; Fold change ASAP3 (222236_s_at) (24 hr, direction down): 2.079; Fold change ATP2B4 (212136_at) (24 hr, direction down): 2.118; Fold change ATXN3 (205416_s_at) (24 hr, direction down): 2.164; Fold change BAIAP2 (205293_x_at) (24 hr, direction down): 2.03; Fold change BCL11A (1559078_at) (24 hr, direction down): 2.151; Fold change BCL11B (222895_s_at) (24 hr, direction down): 2.021; Fold change BICD2 (1553021_s_at) (24 hr, direction down): 2.09; Fold change BLCAP (201032_at) (24 hr, direction down): 2.077; Fold change C1orf46 (216718_at) (24 hr, direction down): 2.083; Fold change C1orf71 (225551_at) (24 hr, direction down): 2.006; Fold change C1orf97 (224443_at) (24 hr, direction down): 2.02; Fold change C2orf7 (223312_at) (24 hr, direction down): 2.047; Fold change C4orf3 (224605_at) (24 hr, direction down): 2.002; Fold change C6orf105 (215100_at) (24 hr, direction down): 2.121; Fold change C12orf29 (228378_at) (24 hr, direction down): 2.164; Fold change C15orf52 (227272_at) (24 hr, direction down): 2.042; Fold change C17orf67 (236863_at) (24 hr, direction down): 2.03; Fold change C20orf177 (225313_at) (24 hr, direction down): 2.134; Fold change CALM1 /// CALM2 /// CALM3 (200653_s_at) (24 hr, direction down): 2.056; Fold change CALM1 /// CALM2 /// CALM3 (209563_x_at) (24 hr, direction down): 2.029; Fold change CAT (211922_s_at) (24 hr, direction down): 2.095; Fold change CENPT (218148_at) (24 hr, direction down): 2.074; Fold change CEP76 (52285_f_at) (24 hr, direction down): 2.004; Fold change CERK (218421_at) (24 hr, direction down): 2.138; Fold change CKB (200884_at) (24 hr, direction down): 2.055; Fold change CLCN5 (232127_at) (24 hr, direction down): 2.126; Fold change CLDN7 (202790_at) (24 hr, direction down): 2.043; Fold change CLIP1 (1558924_s_at) (24 hr, direction down): 2.123; Fold change CLN8 (229958_at) (24 hr, direction down): 2.102; Fold change CNDP2 (217752_s_at) (24 hr, direction down): 2.002; Fold change CNTN1 (211203_s_at) (24 hr, direction down): 2.105; Fold change CSNK2A2 (203575_at) (24 hr, direction down): 2.095; Fold change CTAGE4 (215549_x_at) (24 hr, direction down): 2.108; Fold change CXCL12 (203666_at) (24 hr, direction down): 2.074; Fold change CYB5R1 (202263_at) (24 hr, direction down): 2.119; Fold change CYCS (244546_at) (24 hr, direction down): 2.168; Fold change DBI (211070_x_at) (24 hr, direction down): 2.056; Fold change DDR1 (1007_s_at) (24 hr, direction down): 2.104; Fold change DDX50 (1568815_a_at) (24 hr, direction down): 2.115; Fold change DHRS4 /// DHRS4L2 (218021_at) (24 hr, direction down): 2.062; Fold change DMD (203881_s_at) (24 hr, direction down): 2.165; Fold change DOPEY2 (205248_at) (24 hr, direction down): 2.103; Fold change ELOVL3 (234513_at) (24 hr, direction down): 2.048; Fold change EPCAM (201839_s_at) (24 hr, direction down): 2.093; Fold change EPHB4 (202894_at) (24 hr, direction down): 2.087; Fold change EPHB6 (204718_at) (24 hr, direction down): 2.036; Fold change ERI2 (213365_at) (24 hr, direction down): 2.167; Fold change F2RL1 (206429_at) (24 hr, direction down): 2.099; Fold change FAM33A (225684_at) (24 hr, direction down): 2.022; Fold change FAR1 (224865_at) (24 hr, direction down): 2.117; Fold change FBXO3 (229955_at) (24 hr, direction down): 2.107; Fold change FBXO3 (238686_at) (24 hr, direction down): 2.147; Fold change FBXO9 (212991_at) (24 hr, direction down): 2.083; Fold change FBXO9 (1559094_at) (24 hr, direction down): 2.099; Fold change FIGNL1 (222843_at) (24 hr, direction down): 2.071; Fold change FKBP1B (206857_s_at) (24 hr, direction down): 2.113; Fold change FKBPL (219187_at) (24 hr, direction down): 2.09; Fold change FRAG1 (41858_at) (24 hr, direction down): 2.049; Fold change FUCA1 (202838_at) (24 hr, direction down): 2.147; Fold change FUT2 (210608_s_at) (24 hr, direction down): 2.05; Fold change GAB1 (225998_at) (24 hr, direction down): 2.071; Fold change GAS7 (202192_s_at) (24 hr, direction down): 2.035; Fold change GDAP1 (226269_at) (24 hr, direction down): 2.153; Fold change GNG4 (205184_at) (24 hr, direction down): 2.054; Fold change GPR1 (214605_x_at) (24 hr, direction down): 2.109; Fold change GPR137B (204137_at) (24 hr, direction down): 2.046; Fold change GSN (200696_s_at) (24 hr, direction down): 2.089; Fold change HES5 (239230_at) (24 hr, direction down): 2.078; Fold change HIGD1A (217845_x_at) (24 hr, direction down): 2.017; Fold change HN1 (222396_at) (24 hr, direction down): 2.105; Fold change HN1L (212115_at) (24 hr, direction down): 2.003; Fold change HSDL2 (209512_at) (24 hr, direction down): 2.126; Fold change ID2 (201565_s_at) (24 hr, direction down): 2.158
